Measured values reported in PubChem BioAssay AID2060499 (Molecular Pharmacology Branch, DTP, NCI, 2025).

Tested on: 777334-354-R2-J4-PDC tumor spheroids with HUVEC/MSC, viability
Test: Anticancer human tumor 777334-354-R2-J4-PDC patient-derived pancreatic adenocarcinoma cell line growth inhibition [GQUAD]
Settings: for IC50: curve of first compound; for viability, T/C: stronger effect = lower value
In short: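 Multi-cell-type spheroids of tumor cells with HUVEC and mesenchymal stem cells, treated with drug combinations. Concentrations descend in half-log steps from near clinical Cmax, or from 10 microM where Cmax is unknown; viability read-out.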

[1] = second compound 0.0316 µM, first compound 0.0316 µM
[2] = second compound 0.0316 µM, first compound 0.1 µM
[3] = second compound 0.0316 µM, first compound 0.316 µM
[4] = second compound 0.0316 µM, first compound 1 µM
[5] = second compound 0.0316 µM, first compound 3.16 µM
[6] = second compound 0.0316 µM, first compound 10 µM
[7] = second compound 0.1 µM, first compound 0.0316 µM
[8] = second compound 0.1 µM, first compound 0.1 µM
[9] = second compound 0.1 µM, first compound 0.316 µM
[10] = second compound 0.1 µM, first compound 1 µM
[11] = second compound 0.1 µM, first compound 3.16 µM
[12] = second compound 0.1 µM, first compound 10 µM
[13] = second compound 0.316 µM, first compound 0.0316 µM
[14] = second compound 0.316 µM, first compound 0.1 µM
[15] = second compound 0.316 µM, first compound 0.316 µM
[16] = second compound 0.316 µM, first compound 1 µM
[17] = second compound 0.316 µM, first compound 3.16 µM
[18] = second compound 0.316 µM, first compound 10 µM
[19] = second compound 1 µM, first compound 0.0316 µM
[20] = second compound 1 µM, first compound 0.1 µM
[21] = second compound 1 µM, first compound 0.316 µM
[22] = second compound 1 µM, first compound 1 µM
[23] = second compound 1 µM, first compound 3.16 µM
[24] = second compound 1 µM, first compound 10 µM
[25] = second compound 3.16 µM, first compound 0.0316 µM
[26] = second compound 3.16 µM, first compound 0.1 µM
[27] = second compound 3.16 µM, first compound 0.316 µM
[28] = second compound 3.16 µM, first compound 1 µM
[29] = second compound 3.16 µM, first compound 3.16 µM
[30] = second compound 3.16 µM, first compound 10 µM
[31] = second compound 10 µM, first compound 0.0316 µM
[32] = second compound 10 µM, first compound 0.1 µM
[33] = second compound 10 µM, first compound 0.316 µM
[34] = second compound 10 µM, first compound 1 µM
[35] = second compound 10 µM, first compound 3.16 µM
[36] = second compound 10 µM, first compound 10 µM
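Also: spheroids exposed to compounds for 7 days before readout.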

CCCS(=O)(=O)Nc1ccc(F)c(C(=O)c2c[nH]c3ncc(-c4ccc(Cl)cc4)cc23)c1F + Cc1cnc(CNC(=O)c2c(=O)c3ccc(N4CCCN(C)CC4)nc3n3c2sc2ccccc23)cn1
IC50 (second compound 0.0316 µM): 7.16 µM | IC50 (second compound 0.1 µM): 6.93 µM | IC50 (second compound 0.316 µM): 6.74 µM | IC50 (second compound 1 µM): 7.16 µM | IC50 (second compound 3.16 µM): > 10 µM | IC50 (second compound 10 µM): 3.87 µM | viability, T/C [1]: 99.3% | viability, T/C [2]: 89.1% | viability, T/C [3]: 105% | viability, T/C [4]: 94.3% | viability, T/C [5]: 106% | viability, T/C [6]: 30% | viability, T/C [7]: 83.5% | viability, T/C [8]: 88.7% | viability, T/C [9]: 104% | viability, T/C [10]: 95.5% | viability, T/C [11]: 88% | viability, T/C [12]: 32.1% | viability, T/C [13]: 88.7% | viability, T/C [14]: 91.7% | viability, T/C [15]: 69% | viability, T/C [16]: 92.6% | viability, T/C [17]: 93.3% | viability, T/C [18]: 30.7% | viability, T/C [19]: 68.8% | viability, T/C [20]: 77.6% | viability, T/C [21]: 78.5% | viability, T/C [22]: 71.2% | viability, T/C [23]: 74.9% | viability, T/C [24]: 40.2% | viability, T/C [25]: 59% | viability, T/C [26]: 61.1% | viability, T/C [27]: 68.9% | viability, T/C [28]: 71.2% | viability, T/C [29]: 72% | viability, T/C [30]: 43.1% | viability, T/C [31]: 52.7% | viability, T/C [32]: 48.6% | viability, T/C [33]: 68.2% | viability, T/C [34]: 68.4% | viability, T/C [35]: 65.2% | viability, T/C [36]: 0.24%

C#Cc1c(F)ccc2cc(O)cc(-c3ncc4c(N5CC6CCC(C5)N6)nc(OCC56CCCN5CC(F)C6)nc4c3F)c12 (stereo unspecified) + CN(C)c1ccc(Nc2c3ccc(NC(=O)CCN4CCCC4)cc3nc3cc(NC(=O)CCN4CCCC4)ccc23)cc1
IC50 (second compound 0.0316 µM): 0.0337 µM | IC50 (second compound 0.1 µM): 0.0361 µM | IC50 (second compound 0.316 µM): < 0.0316 µM | IC50 (second compound 1 µM): < 0.0316 µM | IC50 (second compound 3.16 µM): < 0.0316 µM | IC50 (second compound 10 µM): < 0.0316 µM | viability, T/C [1]: 51% | viability, T/C [2]: 38.9% | viability, T/C [3]: 29.8% | viability, T/C [4]: 31.2% | viability, T/C [5]: 30.1% | viability, T/C [6]: 22.6% | viability, T/C [7]: 52.3% | viability, T/C [8]: 38.7% | viability, T/C [9]: 34.3% | viability, T/C [10]: 28.4% | viability, T/C [11]: 29.1% | viability, T/C [12]: 21.5% | viability, T/C [13]: 46.9% | viability, T/C [14]: 35% | viability, T/C [15]: 36% | viability, T/C [16]: 29% | viability, T/C [17]: 26.5% | viability, T/C [18]: 22.4% | viability, T/C [19]: 37.1% | viability, T/C [20]: 38% | viability, T/C [21]: 31.4% | viability, T/C [22]: 27.8% | viability, T/C [23]: 25.4% | viability, T/C [24]: 23.7% | viability, T/C [25]: 38.6% | viability, T/C [26]: 34.4% | viability, T/C [27]: 32% | viability, T/C [28]: 24.2% | viability, T/C [29]: 22.6% | viability, T/C [30]: 17.8% | viability, T/C [31]: 36.3% | viability, T/C [32]: 32.3% | viability, T/C [33]: 27.5% | viability, T/C [34]: 19.6% | viability, T/C [35]: 15.2% | viability, T/C [36]: 10.3%

CC(C)(O)C1CCC(Nc2ccc3ncc(-c4cccc(C(F)(F)F)c4)n3n2)CC1 (stereo unspecified) + Cc1[nH]c2ccc(F)cc2c1-c1nc2c3cccnc3c3ncccc3c2[nH]1
IC50 (second compound 0.0316 µM): 1.5 µM | IC50 (second compound 0.1 µM): 1.33 µM | IC50 (second compound 0.316 µM): 1.06 µM | IC50 (second compound 1 µM): 0.874 µM | IC50 (second compound 3.16 µM): < 0.0316 µM | IC50 (second compound 10 µM): < 0.0316 µM | viability, T/C [1]: 82.8% | viability, T/C [2]: 97.5% | viability, T/C [3]: 87.3% | viability, T/C [4]: 59.9% | viability, T/C [5]: 30.1% | viability, T/C [6]: 33.9% | viability, T/C [7]: 96.7% | viability, T/C [8]: 94.5% | viability, T/C [9]: 84.8% | viability, T/C [10]: 55% | viability, T/C [11]: 35.1% | viability, T/C [12]: 32.4% | viability, T/C [13]: 96.7% | viability, T/C [14]: 87.2% | viability, T/C [15]: 87% | viability, T/C [16]: 51.2% | viability, T/C [17]: 30.3% | viability, T/C [18]: 32.7% | viability, T/C [19]: 86.7% | viability, T/C [20]: 68.2% | viability, T/C [21]: 82.4% | viability, T/C [22]: 46.1% | viability, T/C [23]: 29.7% | viability, T/C [24]: 24.6% | viability, T/C [25]: 35.1% | viability, T/C [26]: 28.4% | viability, T/C [27]: 23.2% | viability, T/C [28]: 12.9% | viability, T/C [29]: 8.53% | viability, T/C [30]: 10.5% | viability, T/C [31]: 26.7% | viability, T/C [32]: 27.6% | viability, T/C [33]: 18% | viability, T/C [34]: 12.3% | viability, T/C [35]: 7.51% | viability, T/C [36]: 7.22%
